Experimental findings from patent US7074789B2, “Kinase inhibitors” (Amgen Inc., priority 1999, dated 2006) are described below.

What all share (type): biochemical
In test [1] the target is T1, EGFR (Homo sapiens, UniProt P00533).
T1 construct: Kinases are expressed as either kinase domains or full length constructs; made in house
As to the kind of experiment: Kinase inhibition assay (33P transfer), EGFR. The settings on record: Table 2, class symbols A-E; read-out: EGFR-1. An outline of the steps:
(§1)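 IC50: inhibitor concentration lowering 33P incorporation into immobilised substrate by 50%. Label transferred from ATP to poly(Glu,Tyr) 4:1 or poly(Arg,Ser) 3:1 is measured after a 0.5% phosphoric acid wash by liquid scintillation.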

The target in test [2] is T2, Lck (Homo sapiens, UniProt P06239).
T2 construct: Kinases are expressed as either kinase domains or full length constructs; made in house
T2 sequence (P06239 whole entry, species assumed, the tested form may be a part): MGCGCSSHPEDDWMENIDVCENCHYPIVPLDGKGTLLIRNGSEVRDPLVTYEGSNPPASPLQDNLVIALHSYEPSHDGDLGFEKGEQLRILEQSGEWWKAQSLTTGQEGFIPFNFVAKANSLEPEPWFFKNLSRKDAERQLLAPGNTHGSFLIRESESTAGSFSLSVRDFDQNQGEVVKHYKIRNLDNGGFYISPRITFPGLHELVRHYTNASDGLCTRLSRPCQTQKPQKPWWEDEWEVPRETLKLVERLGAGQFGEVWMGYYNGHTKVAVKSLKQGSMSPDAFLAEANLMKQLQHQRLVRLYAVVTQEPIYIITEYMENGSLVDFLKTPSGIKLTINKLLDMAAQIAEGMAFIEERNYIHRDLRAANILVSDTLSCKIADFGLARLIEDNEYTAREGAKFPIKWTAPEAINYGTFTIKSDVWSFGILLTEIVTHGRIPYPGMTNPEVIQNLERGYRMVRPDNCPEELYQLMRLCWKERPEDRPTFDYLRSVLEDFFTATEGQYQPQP
Description: Kinase inhibition assay (33P transfer), Lck. The settings on record: Table 3, class symbols; read-out: Lck-1. An outline of the steps: (§2)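 Measured by scintillation: radiolabelled phosphate added by tagged recombinant kinases to poly(Glu,Tyr) 4:1 or poly(Arg,Ser) 3:1 attached to microtiter wells, counted once free label was washed away with 0.5% phosphoric acid.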

Test [3] deals with T3, IGFR-1 (Homo sapiens, UniProt P08069).
T3 construct: Kinases are expressed as either kinase domains or full length constructs; made in house
T3 sequence (P08069 31-1367): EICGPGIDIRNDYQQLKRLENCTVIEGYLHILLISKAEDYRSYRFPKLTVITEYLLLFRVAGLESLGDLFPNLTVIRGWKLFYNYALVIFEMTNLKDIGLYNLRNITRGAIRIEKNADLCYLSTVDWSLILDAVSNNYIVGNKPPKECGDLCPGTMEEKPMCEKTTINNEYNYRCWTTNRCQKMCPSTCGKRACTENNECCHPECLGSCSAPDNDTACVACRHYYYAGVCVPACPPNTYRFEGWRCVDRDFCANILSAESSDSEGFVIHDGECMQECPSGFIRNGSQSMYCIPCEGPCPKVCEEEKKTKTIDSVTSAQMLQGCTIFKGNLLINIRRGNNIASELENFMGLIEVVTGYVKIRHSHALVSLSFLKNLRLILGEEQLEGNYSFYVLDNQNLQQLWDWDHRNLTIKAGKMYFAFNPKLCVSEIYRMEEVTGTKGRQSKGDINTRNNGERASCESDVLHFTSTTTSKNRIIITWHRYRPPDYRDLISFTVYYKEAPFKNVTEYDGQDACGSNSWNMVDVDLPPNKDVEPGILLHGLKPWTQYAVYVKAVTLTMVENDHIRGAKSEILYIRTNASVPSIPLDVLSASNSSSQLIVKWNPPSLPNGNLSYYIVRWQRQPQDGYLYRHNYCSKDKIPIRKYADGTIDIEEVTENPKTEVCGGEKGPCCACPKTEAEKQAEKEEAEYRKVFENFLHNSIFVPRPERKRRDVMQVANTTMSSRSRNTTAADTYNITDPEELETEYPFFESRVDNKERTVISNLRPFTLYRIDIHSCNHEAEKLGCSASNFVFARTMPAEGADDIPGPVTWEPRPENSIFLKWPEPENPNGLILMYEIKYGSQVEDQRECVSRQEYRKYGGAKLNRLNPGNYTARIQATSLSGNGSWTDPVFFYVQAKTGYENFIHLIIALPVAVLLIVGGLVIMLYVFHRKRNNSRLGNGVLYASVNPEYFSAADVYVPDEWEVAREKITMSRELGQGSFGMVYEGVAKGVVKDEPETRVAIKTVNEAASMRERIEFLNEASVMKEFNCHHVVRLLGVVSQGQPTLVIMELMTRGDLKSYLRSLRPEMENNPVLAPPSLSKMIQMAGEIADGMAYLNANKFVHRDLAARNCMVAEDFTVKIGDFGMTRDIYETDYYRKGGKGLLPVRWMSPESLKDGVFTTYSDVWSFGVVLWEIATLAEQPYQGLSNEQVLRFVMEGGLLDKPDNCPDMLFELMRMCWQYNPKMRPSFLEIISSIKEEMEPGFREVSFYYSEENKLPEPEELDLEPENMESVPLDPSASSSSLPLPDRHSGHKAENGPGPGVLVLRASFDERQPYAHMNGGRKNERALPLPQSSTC
Description: Kinase inhibition assay (33P transfer), IGFR-1. The settings on record: Table 2, class symbols A-E.

The target in test [4] is T4, AKT (Homo sapiens, UniProt Q9Y243).
T4 construct: Kinases are expressed as either kinase domains or full length constructs; made in house
T4 sequence (Q9Y243 whole entry, the tested form may be a part): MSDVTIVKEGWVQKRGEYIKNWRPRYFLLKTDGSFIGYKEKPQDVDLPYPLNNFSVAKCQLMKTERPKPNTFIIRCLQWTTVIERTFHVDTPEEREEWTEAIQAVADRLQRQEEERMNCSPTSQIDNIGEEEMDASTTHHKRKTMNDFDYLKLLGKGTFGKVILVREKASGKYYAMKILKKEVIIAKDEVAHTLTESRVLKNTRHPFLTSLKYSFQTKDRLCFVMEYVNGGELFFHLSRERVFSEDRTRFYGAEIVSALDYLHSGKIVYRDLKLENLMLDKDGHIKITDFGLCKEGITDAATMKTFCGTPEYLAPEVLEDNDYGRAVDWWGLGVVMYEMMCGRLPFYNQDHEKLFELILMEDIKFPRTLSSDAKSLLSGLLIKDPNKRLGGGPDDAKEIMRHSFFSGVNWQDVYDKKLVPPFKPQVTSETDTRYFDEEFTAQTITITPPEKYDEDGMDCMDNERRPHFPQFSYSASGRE
Description: Kinase inhibition assay (33P transfer), AKT. The settings on record: Table 2, class symbols A-E; read-out: AKT3-1. An outline of the steps:
as §2

The target of test [5] is T5, c-Met (Homo sapiens, UniProt P08581).
T5 construct: Kinases are expressed as either kinase domains or full length constructs; made in house
Description: Kinase inhibition assay (33P transfer), c-Met. Particulars: Table 2, class symbols A-E; read-out: Met-1. An outline of the steps:
as §1

The target of test [6] is T6, Itk (Homo sapiens, UniProt Q08881).
T6 construct: Kinases are expressed as either kinase domains or full length constructs; made in house
T6 sequence (Q08881 1-620): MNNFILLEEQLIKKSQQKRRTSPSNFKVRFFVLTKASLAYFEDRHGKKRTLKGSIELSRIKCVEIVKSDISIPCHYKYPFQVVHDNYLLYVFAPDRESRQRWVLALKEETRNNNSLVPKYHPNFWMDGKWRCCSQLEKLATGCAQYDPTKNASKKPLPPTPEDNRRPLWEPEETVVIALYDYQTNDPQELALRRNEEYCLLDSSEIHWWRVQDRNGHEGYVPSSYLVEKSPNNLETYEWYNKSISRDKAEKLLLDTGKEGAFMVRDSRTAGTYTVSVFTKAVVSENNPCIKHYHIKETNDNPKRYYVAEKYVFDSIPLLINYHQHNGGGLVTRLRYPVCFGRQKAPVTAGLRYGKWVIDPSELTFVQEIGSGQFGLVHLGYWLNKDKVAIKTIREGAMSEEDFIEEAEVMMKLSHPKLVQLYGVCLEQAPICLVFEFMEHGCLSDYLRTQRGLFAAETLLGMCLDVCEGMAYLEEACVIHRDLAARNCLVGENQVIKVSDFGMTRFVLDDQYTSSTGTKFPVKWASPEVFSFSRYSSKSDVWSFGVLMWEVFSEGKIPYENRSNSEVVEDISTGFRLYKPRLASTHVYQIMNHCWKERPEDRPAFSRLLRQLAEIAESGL
As to the kind of experiment: Kinase inhibition assay (33P transfer), Itk. Particulars: Table 3, class symbols; read-out: Itk-1. An outline of the steps:
as §1

Test [7] has as its target T7, Kdr (Homo sapiens, UniProt P35968).
T7 construct: Kinases are expressed as either kinase domains or full length constructs; made in house
Description: Kinase inhibition assay (33P transfer), Kdr. Particulars: Table 3, class symbols; read-out: KDR-1. An outline of the steps:
as §2

In test [8] the target is T8, ErbB2 (Homo sapiens, UniProt P04626).
T8 construct: Kinases are expressed as either kinase domains or full length constructs; made in house
Description: Kinase inhibition assay (33P transfer), ErbB2. Particulars: read-out: ErbB2-2. An outline of the steps: as §1

The target in test [9] is T9, PDGFRB (Homo sapiens, UniProt P09619).
T9 construct: Kinases are expressed as either kinase domains or full length constructs; made in house
T9 sequence (P09619 33-1106, species assumed): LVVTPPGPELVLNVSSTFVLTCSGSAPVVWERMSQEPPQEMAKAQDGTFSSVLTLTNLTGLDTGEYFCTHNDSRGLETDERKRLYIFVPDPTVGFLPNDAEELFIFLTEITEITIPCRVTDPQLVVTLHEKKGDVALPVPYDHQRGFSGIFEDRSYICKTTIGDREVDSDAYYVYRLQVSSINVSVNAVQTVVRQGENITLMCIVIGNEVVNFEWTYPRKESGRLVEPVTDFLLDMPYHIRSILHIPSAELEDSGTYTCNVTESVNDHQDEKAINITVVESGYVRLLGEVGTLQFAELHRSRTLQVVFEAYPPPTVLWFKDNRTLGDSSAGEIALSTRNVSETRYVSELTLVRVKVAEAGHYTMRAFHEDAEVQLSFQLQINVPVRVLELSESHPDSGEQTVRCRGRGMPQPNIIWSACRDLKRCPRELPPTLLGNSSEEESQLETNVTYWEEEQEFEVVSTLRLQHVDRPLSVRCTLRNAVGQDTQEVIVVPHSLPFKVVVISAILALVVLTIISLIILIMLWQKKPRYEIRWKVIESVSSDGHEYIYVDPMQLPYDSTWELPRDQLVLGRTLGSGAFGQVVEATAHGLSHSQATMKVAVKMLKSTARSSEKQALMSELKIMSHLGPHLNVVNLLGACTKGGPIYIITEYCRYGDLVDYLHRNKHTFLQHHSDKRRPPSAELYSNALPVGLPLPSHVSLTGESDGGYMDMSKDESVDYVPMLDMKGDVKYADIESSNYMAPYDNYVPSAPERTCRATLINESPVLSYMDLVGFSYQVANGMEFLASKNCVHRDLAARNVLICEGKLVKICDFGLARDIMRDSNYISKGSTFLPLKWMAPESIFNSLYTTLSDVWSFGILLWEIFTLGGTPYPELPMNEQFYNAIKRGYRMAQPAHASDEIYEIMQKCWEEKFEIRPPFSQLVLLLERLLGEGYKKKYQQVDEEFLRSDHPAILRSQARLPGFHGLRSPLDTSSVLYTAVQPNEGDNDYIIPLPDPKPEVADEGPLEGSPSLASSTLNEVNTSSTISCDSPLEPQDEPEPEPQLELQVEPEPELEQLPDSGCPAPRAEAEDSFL
As to the kind of experiment: Kinase inhibition assay (33P transfer), PDGFRB. The settings on record: read-out: PDGFRB-1.

Test [10] has as its target T10, Zap-70 (Homo sapiens, UniProt P43403).
T10 construct: Kinases are expressed as either kinase domains or full length constructs; made in house
T10 sequence (P43403 1-619): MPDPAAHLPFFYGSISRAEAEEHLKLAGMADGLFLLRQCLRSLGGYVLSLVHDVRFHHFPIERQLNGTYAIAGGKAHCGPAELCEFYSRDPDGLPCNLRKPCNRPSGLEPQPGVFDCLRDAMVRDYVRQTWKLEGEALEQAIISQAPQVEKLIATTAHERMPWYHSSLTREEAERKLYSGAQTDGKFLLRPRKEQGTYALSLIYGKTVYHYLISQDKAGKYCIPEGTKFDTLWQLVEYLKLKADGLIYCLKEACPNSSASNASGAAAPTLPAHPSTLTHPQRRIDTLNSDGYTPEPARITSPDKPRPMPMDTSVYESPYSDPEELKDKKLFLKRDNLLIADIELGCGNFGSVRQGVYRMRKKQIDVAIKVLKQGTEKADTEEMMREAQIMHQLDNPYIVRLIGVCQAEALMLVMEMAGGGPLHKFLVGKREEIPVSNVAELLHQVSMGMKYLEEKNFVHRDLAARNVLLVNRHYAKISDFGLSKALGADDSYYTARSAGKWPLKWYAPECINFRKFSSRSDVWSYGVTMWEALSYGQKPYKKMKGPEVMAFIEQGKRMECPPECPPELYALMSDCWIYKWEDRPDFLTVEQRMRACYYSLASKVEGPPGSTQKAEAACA
As to the kind of experiment: Kinase inhibition assay (33P transfer), Zap-70. The settings on record: Table 3, class symbols; read-out: Zap-1. An outline of the steps: as §2

pIC50: −log10 of the molar value. Where only a bound is given, the exact number is not on record here.

T1 sequence (P00533 25-1210, species assumed): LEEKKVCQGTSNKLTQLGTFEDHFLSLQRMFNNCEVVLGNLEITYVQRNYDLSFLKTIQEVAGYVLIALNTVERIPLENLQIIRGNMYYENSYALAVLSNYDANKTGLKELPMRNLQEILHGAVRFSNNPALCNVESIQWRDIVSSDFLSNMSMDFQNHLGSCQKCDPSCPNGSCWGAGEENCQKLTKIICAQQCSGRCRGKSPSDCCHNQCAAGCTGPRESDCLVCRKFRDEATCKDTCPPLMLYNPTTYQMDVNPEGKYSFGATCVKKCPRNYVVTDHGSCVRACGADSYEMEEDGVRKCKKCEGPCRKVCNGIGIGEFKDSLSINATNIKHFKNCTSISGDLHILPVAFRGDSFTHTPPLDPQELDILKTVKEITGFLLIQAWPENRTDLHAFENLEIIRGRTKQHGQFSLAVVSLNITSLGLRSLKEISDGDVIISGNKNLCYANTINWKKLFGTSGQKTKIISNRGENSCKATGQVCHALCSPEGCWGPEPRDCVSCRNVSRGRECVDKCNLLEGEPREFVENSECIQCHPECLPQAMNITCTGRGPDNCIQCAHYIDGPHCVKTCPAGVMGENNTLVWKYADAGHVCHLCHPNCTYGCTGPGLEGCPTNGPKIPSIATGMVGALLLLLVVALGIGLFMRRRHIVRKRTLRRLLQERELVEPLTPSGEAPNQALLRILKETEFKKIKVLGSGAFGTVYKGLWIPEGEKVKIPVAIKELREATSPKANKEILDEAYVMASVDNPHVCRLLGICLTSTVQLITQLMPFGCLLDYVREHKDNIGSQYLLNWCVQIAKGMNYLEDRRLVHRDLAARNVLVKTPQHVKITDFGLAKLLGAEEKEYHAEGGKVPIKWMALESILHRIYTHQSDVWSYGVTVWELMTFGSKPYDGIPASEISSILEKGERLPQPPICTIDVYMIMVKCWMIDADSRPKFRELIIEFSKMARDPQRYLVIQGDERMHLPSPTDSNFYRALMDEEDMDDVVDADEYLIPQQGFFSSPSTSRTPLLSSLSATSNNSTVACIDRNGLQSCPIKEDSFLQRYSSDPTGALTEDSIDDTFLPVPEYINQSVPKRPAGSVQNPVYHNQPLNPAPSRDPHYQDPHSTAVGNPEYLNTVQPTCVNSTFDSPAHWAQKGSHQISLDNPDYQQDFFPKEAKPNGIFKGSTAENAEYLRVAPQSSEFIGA

In the case of `COc1ccc(Nc2ncnc(N(C)c3ccc(S(=O)(=O)O)cc3)n2)cc1OC` [Compound 798], the pIC50 was less than 4.97 in [1]; less than 4.97 in [2]; less than 4.97 in [3]; less than 4.97 in [4]; 4.97 to 5.08 in [5]; less than 4.97 in test [6]. For the same compound, the pIC50 was 5.24 to 6.02 in test [7], less than 4.97 in test [8], 5.24 to 6.02 in test [9] and less than 4.97 in test [10].
For `FC(F)(F)Sc1cccc(Nc2ncnc(Nc3cc(-c4ccco4)[nH]n3)n2)c1` [Compound 827], the pIC50 is greater than 6.02 in test [1]; 5.24 to 6.02 in test [2]; 5.24 to 6.02 in [3]; 4.97 to 5.08 in [4]; 5.24 to 6.02 in test [5]; 5.24 to 6.02 in test [6]. Also, the pIC50 is 5.24 to 6.02 in test [7], greater than 6.02 in test [8], 5.24 to 6.02 in test [9] and 5.24 to 6.02 in test [10].
As for `COc1cc(Nc2ncnc(N3CCCc4ccc(Cl)cc43)n2)cc(OC)c1OC` [Compound 645], the pIC50 in [1] is greater than 6.03; in test [2], less than 4.98; in test [3], less than 4.98; in test [4], less than 4.98; in test [5] it was less than 4.98; in [6], less than 4.98. The pIC50 is less than 4.98 in [7], greater than 6.03 in test [8], less than 4.98 in [9] and less than 4.98 in [10].
Take `CN(c1cccc(Cl)c1)c1ncnc(Nc2cc(Cl)c(Cl)c(Cl)c2)n1` [Compound 804]: the pIC50 in test [1], in test [2], in test [3], in test [4], in [5] and in test [6] was less than 4.96 in each case. Besides, the pIC50 in [7] is less than 4.96; in test [8], less than 4.96; in [9] it was 4.96 to 5.07; in test [10], less than 4.96.
Regarding `O=S(=O)(O)c1cccc(Nc2ncnc(Nc3cc(-c4ccco4)[nH]n3)n2)c1` [Compound 825], the pIC50 was greater than 6.00 in test [1]; 4.95 to 5.06 in [2]; 5.22 to 6.00 in [3]; 5.22 to 6.00 in test [4]; 5.22 to 6.00 in test [5]; 5.22 to 6.00 in [6]. The pIC50 in [7] is greater than 6.00; in test [8] it was 5.22 to 6.00; in [9] it was 5.22 to 6.00; in test [10] it was 5.06 to 5.22.
For `c1ccc(Cn2ncc3cc(Nc4ncnc(Nc5ccc6ncsc6c5)n4)ccc32)cc1` [Compound 900], the pIC50 is greater than 6.05 in test [1]; 5.27 to 6.05 in [2]; 5.27 to 6.05 in test [3]; greater than 6.05 in test [4]; greater than 6.05 in test [5]; 5.27 to 6.05 in test [6]. Also, the pIC50 in [7] is greater than 6.05; in test [8] it was greater than 6.05; in [9], 5.27 to 6.05; in [10], 5.11 to 5.27.
`c1ccc(Cn2ncc3cc(Nc4ncnc(NCCN5CCCC5)n4)ccc32)cc1` [Compound 871]: the pIC50 in test [1] was less than 4.96; in test [2], less than 4.96; in test [3], less than 4.96; in test [4], less than 4.96; in test [5], less than 4.96; in [6], 5.07 to 5.24. Further, the pIC50 in [7] was less than 4.96; in test [8], less than 4.96; in [9], 4.96 to 5.07; in test [10] it was less than 4.96.
As for `O=C(O)CCNC(=O)c1ccc(Nc2ncnc(Nc3cc(-c4ccco4)[nH]n3)n2)cc1` [Compound 885], the pIC50 was 5.26 to 6.04 in [1]; less than 4.98 in [2]; 5.26 to 6.04 in [3]; 4.98 to 5.09 in test [4]; 5.26 to 6.04 in test [5]; 5.26 to 6.04 in test [6]. Further, the pIC50 in [7] was greater than 6.04; in [8], 5.26 to 6.04; in test [9] it was 5.26 to 6.04; in [10], 5.09 to 5.26.
Turning to `COC(=O)c1ccc(-c2cc(Nc3ncnc(NCc4ccccc4OC)n3)[nH]n2)cc1` [Compound 815], the pIC50 in test [1], in test [2], in test [3], in test [4], in test [5] and in [6] was less than 4.98 each time. In addition, the pIC50 in [7] was 4.98 to 5.09; in test [8] it was 5.25 to 6.03; in test [9], 5.25 to 6.03; in [10], less than 4.98.
On to `c1cc(Cn2ccnn2)cc(Nc2ncnc(-n3c(Nc4ccc5[nH]ccc5c4)nc4ccccc43)n2)c1` [Compound 963], for which the pIC50 in [1] was 5.15 to 5.32; in test [2], 5.32 to 6.10; in test [3], 5.15 to 5.32; in [4] it was 5.05 to 5.15; in [5] it was 5.32 to 6.10; in test [6], 5.15 to 5.32. Further, the pIC50 in test [7] is greater than 6.10; in [8], 5.32 to 6.10; in test [9], greater than 6.10; in test [10] it was 5.05 to 5.15.
In the case of `COc1cc(C)c(Nc2ncnc(Nc3cc(-c4ccc(C)cc4)n[nH]3)n2)cc1OC` [Compound 1127], the pIC50 in [1] was less than 4.97; in test [2], less than 4.97; in [3] it was greater than 6.02; in test [4] it was less than 4.97; in test [5], greater than 6.02; in test [6] it was less than 4.97. In addition, the pIC50 in test [7], in test [8], in [9] and in test [10] was less than 4.97 throughout.
Turning to `CN(c1cccc(Cl)c1)c1ncnc(Nc2ccc3c(cnn3C)c2)n1` [Compound 674], the pIC50 was greater than 5.96 in [1]; 5.18 to 5.96 in [2]; less than 4.91 in test [3]; less than 4.91 in [4]; 5.18 to 5.96 in test [5]; less than 4.91 in test [6]. Besides, the pIC50 was 5.18 to 5.96 in test [7], 5.18 to 5.96 in test [8], 5.18 to 5.96 in test [9] and less than 4.91 in test [10].
With `Cc1ccc2c(c1)CCCN2c1ncnc(Nc2cccc(Cc3nnn[nH]3)c2)n1` [Compound 635], the pIC50 in [1] was greater than 6.00; in [2], 5.06 to 5.22; in test [3], less than 4.95; in test [4], less than 4.95; in test [5] it was greater than 6.00; in [6], less than 4.95. Also, the pIC50 in test [7] was greater than 6.00; in test [8] it was greater than 6.00; in test [9] it was 5.22 to 6.00; in [10], 4.95 to 5.06.
On to `COc1cc(Nc2ncnc(-c3cccnc3NC3CCc4ccccc43)n2)cc(OC)c1OC` (centres unmarked) [Compound 846], for which the pIC50 in test [1] was 5.13 to 5.29; in [2] it was 5.29 to 6.07; in test [3], less than 5.02; in [4], less than 5.02; in test [5], less than 5.02; in [6] it was less than 5.02. Besides, the pIC50 in test [7] was 5.29 to 6.07; in test [8] it was 5.13 to 5.29; in test [9], 5.29 to 6.07; in test [10] it was less than 5.02.
